# Patent US12358943B1, “Method of synthesizing testosterone-based thiazolidinone derivatives” (IMAM MOHAMMAD IBN SAUD ISLAMIC UNIVERSITY, priority 2025, dated 2025)
# How the values were obtained:
# Type in all cases: cell-based
# [1] = tested on: Staphylococcus aureus ATCC 6538-P; experiment: Disk diffusion agar antimicrobial activity, S. aureus; conditions: 25 mg/ml, 37° C. for 24 hours, mean values; for zone of inhibition at 25000 µg/mL: Staphylococcus aureus, ATCC6538, 24 h, read-out: Bacterial and fungal growth inhibition zone diameter (mm), S. aureus
# Description: (§1) As used herein, “inhibition zone diameter” refers to a measurement that indicates how effective an antimicrobial is against a bacterium. The diameter of the zone of inhibition can be used to determine the level of sensitivity of the bacterium to the antimicrobial. In laboratory testing, such as the disk diffusion method (Kirby-Bauer test), a paper disk impregnated with the antimicrobial agent is placed on an agar plate inoculated with the microorganism. After incubation, the diameter of the clear zone (inhibition zone) around the disk is measured.
# (§2) The reaction conditions and mechanisms are described in subsequent examples. The successful fabrication of the testosterone-based thiazolidinone derivatives was confirmed by different analytical techniques. The antimicrobial activity of newly prepared testosterone-based thiazolidinone derivatives was evaluated against various microorganisms, including Staphylococcus aureus ATCC 6538-P, Escherichia coli ATCC 25933, Candida albicans ATCC 10231, and Aspergillus niger NRRL-A326.
# (§3) The antimicrobial activity of the synthesized testosterone-based thiazolidinone derivatives (compound (I), compound (II), and compound (III)) were assessed utilizing the disk diffusion agar methodology. Four representative microbial strains were selected for this study: Staphylococcus aureus ATCC 6538-P (Gram-positive), Escherichia coli ATCC 25933 (Gram-negative), Candida albicans ATCC 10231, and Aspergillus niger NRRL-A326. Nutrient agar plates were uniformly inoculated with 0.1 mL of a cell suspension at a density of […] to 10^6 cells/mL for both bacterial and yeast cultures. Following inoculation, samples were introduced onto the agar plates. The plates were subsequently incubated at refrigeration temperature (4° C.) for 2 to 4 hours to enhance the diffusion of the antimicrobial agents. Thereafter, the plates were incubated at 37° C. for 24 hours for bacterial growth and at 30° C. for 48 hours for yeast and fungal growth, maintaining an upright orientation to maximize the growth of the microorganisms. The antimicrobial activity of the testosterone-based thiazolidinone derivatives was quantified by measuring the diameter of the zone of inhibition, which was reported in millimeters (mm). The concentration of the tested testosterone-based thiazolidinone derivatives was 25 mg/ml. This experimental protocol was replicated multiple times, and the mean values of the observed readings were recorded.
# [2] = tested on: Escherichia coli ATCC 25933; experiment: Disk diffusion agar antimicrobial activity, E. coli; conditions: 25 mg/ml, 37° C. for 24 hours, mean values; for zone of inhibition at 25000 µg/mL: Escherichia coli, ATCC25933, 24 h, read-out: Bacterial and fungal growth inhibition zone diameter (mm), E. coli
# Description: as §1, §2, §3
# [3] = tested on: Candida albicans ATCC 10231; experiment: Disk diffusion agar antimicrobial activity, C. albicans; conditions: 25 mg/ml, 30° C. for 48 hours, mean values; for zone of inhibition at 25000 µg/mL: Candida albicans, ATCC10231, 48 h, read-out: Bacterial and fungal growth inhibition zone diameter (mm), C. albicans
# Description: as §1, §2, §3
# [4] = tested on: Aspergillus niger NRRL-A326; experiment: Disk diffusion agar antimicrobial activity, A. niger; conditions: 30° C. for 48 hours, mean values; for Bacterial and fungal growth inhibition zone diameter (mm), A. niger: 25 mg/ml; for zone of inhibition at 25000 µg/mL: Aspergillus niger, NRRLA326, 25 mg/ml, read-out: Bacterial and fungal growth inhibition zone diameter (mm), A. niger
# Description: as §1, §2, §3
# [5] = listed as compound III where Ar is 4-ClC6H4
# [6] = listed as compound III where Ar is C6H5
# [7] = listed as compound III where Ar is CH2C6H4
Structure (SMILES),"Bacterial and fungal growth inhibition zone diameter (mm), S. aureus [1] [mm]","Bacterial and fungal growth inhibition zone diameter (mm), S. aureus [1, 5]","Bacterial and fungal growth inhibition zone diameter (mm), E. coli [2] [mm]","Bacterial and fungal growth inhibition zone diameter (mm), E. coli [2, 5]","Bacterial and fungal growth inhibition zone diameter (mm), C. albicans [3] [mm]","Bacterial and fungal growth inhibition zone diameter (mm), C. albicans [3, 5]","Bacterial and fungal growth inhibition zone diameter (mm), A. niger [4] [mm]","Bacterial and fungal growth inhibition zone diameter (mm), A. niger [4, 5]","Bacterial and fungal growth inhibition zone diameter (mm), S. aureus [1, 6]","Bacterial and fungal growth inhibition zone diameter (mm), E. coli [2, 6]","Bacterial and fungal growth inhibition zone diameter (mm), C. albicans [3, 6]","Bacterial and fungal growth inhibition zone diameter (mm), A. niger [4, 6]","Bacterial and fungal growth inhibition zone diameter (mm), S. aureus [1, 7]","Bacterial and fungal growth inhibition zone diameter (mm), E. coli [2, 7]","Bacterial and fungal growth inhibition zone diameter (mm), C. albicans [3, 7]","Bacterial and fungal growth inhibition zone diameter (mm), A. niger [4, 7]",zone of inhibition at 25000 µg/mL [1] [mm],zone of inhibition at 25000 µg/mL [2] [mm],zone of inhibition at 25000 µg/mL [3] [mm],zone of inhibition at 25000 µg/mL [4] [mm]
CC12CCC(=NN=C3NC(=O)C(CC(=O)Nc4ccc(Cl)cc4)S3)C=C1CCC1C2CCC2(C)C(O)CCC12 (centres unmarked) [Compound III Ar = 4-ClC6H4],38,at least 38 mm,39,at least 39 mm,41,at least 41 mm,43,at least 43 mm,–,–,–,–,–,–,–,–,–,–,–,–
CC12CCC(=NN=C3NC(=O)C(CC(=O)Nc4ccccc4)S3)C=C1CCC1C2CCC2(C)C(O)CCC12 (centres unmarked) [Compound III Ar = C6H5],35,–,32,–,36,–,37,–,at least 35 mm,at least 32 mm,at least 36 mm,at least 37 mm,–,–,–,–,–,–,–,–
CC12CCC(=NN=C3NC(=O)C(CC(=O)NCc4ccccc4)S3)C=C1CCC1C2CCC2(C)C(O)CCC12 (centres unmarked) [Compound III Ar = CH2C6H4],19,–,17,–,21,–,44,–,–,–,–,–,at least 19 mm,at least 17 mm,at least 21 mm,at least 44 mm,–,–,–,–
COC(=O)/C=C1/S/C(=N\N=C2\C=C3CC[C@H]4[C@@H]5CC[C@H](O)[C@@]5(C)CC[C@@H]4[C@@]3(C)CC2)NC1=O [Compound II],29,–,26,–,29,–,–,–,–,–,–,–,–,–,–,–,≥ 29,≥ 26,≥ 29,0
C[C@]12CC[C@H]3[C@@H](CCC4=C/C(=N/NC(N)=S)CC[C@@]43C)[C@@H]1CC[C@@H]2O [Compound I],–,–,–,–,–,–,–,–,–,–,–,–,–,–,–,–,0,0,0,0
